Experimental data reported in patent US9457062B2, “Chaperonin 10-induced immunomodulation” (CBIO LIMITED, priority 2005, dated 2016).
Values belong to the substance of their own block, whether it stands above or below them.

Columns and labels:
Cpn10 promoter = Cpn10 promoter luciferase reporter (pCAT/LUC-CPN) in RAW264.7 cells; assay type: cell-based, mouse; conditions: for up-regulation of the Cpn10 promoter: optimal agonist concentrations (FIG. 18H): IFNγ 1 ng/ml, IL-1β 1 ng/ml, TNF-α 100 ng/ml
From the text: Reagents. Recombinant human Cpn10 was produced to GMP specifications by BresaGen Limited (Adelaide, Aus) essentially as described previously (Johnson, B. 2005. J. Biol Chem 280:4037-4047). […] For FACS analysis, a cysteine residue was engineered onto the C-terminus of Cpn10 and labeled with AlexFluor647 (Invitrogen) according to manufacturer's instructions. […] TLR ligands and cytokines included: E. coli LPS (strain 055:B5, Sigma), E. coli ultra-pure LPS (0111:B4 Sigma), S. aureus LTA, B. subtilis LTA, S. aureus PGN, B. subtilis PGN, zymosan cell wall from S. cerevisae, poly(I:C), imiquimod R837, CpG ODN 1826 and ODN2216, GpC ODN1826 control, (all from Invivogen, San Diego, Calif.), recombinant mouse IFNγ, (Chemicon), IL-1β (PeproTech), and recombinant human TNF-α (Invivogen). Antibodies. Rabbit polyclonal antibodies were raised against Cpn10 and affinity purified at CBio. Cytometric Bead Array (CBA) Flex Sets recognizing phosphorylated signal proteins (both human and mouse) including ERK1/2 (T202/Y204), JNK1/2 (T183/Y185), p38/MAPKinase (T180/Y182), CD14, and FcBlock (CD16/CD32) were from BD. Transfection, Cell Stimulation and Promoter analysis. The pCAT/LUC-CPN promoter construct was provided by M. Ryan and N. Hoogenraad (La Trobe University, Melbourne). RAW264.7 cells were transiently transfected using GeneJuice (Novagen). After 24 h cells were harvested and cell viability assessed by trypan blue dye exclusion. Cells were seeded into 24-well plates and heat shocked (43° C. for 15 min (mild), 30 min (moderate), or 60 min (severe)) followed by recovery at 37° C. or stimulated after 18 h. Cells were washed, harvested in Cell Culture Lysis Reagent (CCLR, Promega) and firefly luciferase signal measured using the Luciferase Assay System (Promega) and the Wallac Victor 2 Multilabel Counter (Perkin-Elmer). Real-time PCR. RAW264.7 cells were seeded at 2.5×10^5/ml in sterile 24 well plates and adhered for 16-20 hrs prior to stimulation. […] Cells were assessed for viability, pooled per condition (n=4), pelleted by centrifugation and resuspended in CCLR.

GM1 = assay: FRET with GM1 (lipid rafts) on MonoMac 6 cells; assay type: binding, human; conditions: donor GM1
Procedure: (§1) Cell labeling for FRET. MonoMac 6 cells (a human monocytic cell line) were labeled with 100 μl of a mixture of donor conjugated antibody (Cy3) and acceptor conjugated antibody (Cy5). For labelling of Cpn10, an anti-Cpn10 rabbit polyclonal antibody was used. The cells were rinsed twice in PBS/0.02% BSA, prior to fixation with 4% formaldehyde for 15 min. The cells were fixed in order to prevent potential re-organisation of the proteins during the course of the experiment. Confocal imaging. Cells were imaged on a Carl Zeiss, Inc. LSM510 confocal microscope (with an Axiovert 200 fluorescent microscope) using a 1.4 NA 63× Zeiss objective. The images were analysed using LSM 2.5 image analysis software (Carl Zeiss, Inc.). Cy3 and Cy5 were detected using the appropriate filter sets. Using typical exposure times for image acquisition (less than 5 s), no fluorescence was observed from a Cy3-labelled specimen using the Cy5 filters, nor was Cy5 fluorescence detected using the Cy3 filter sets. FRET measurements. FRET is a non-invasive imaging technique used to determine molecular proximity. […]
In the present study, FRET was measured using a method as previously described (Kenworthy and Edidin (1998) Journal of Cell Biology 142: 69-84; Kenworthy and Edidin (1998) in Gelb, M. H. (Ed.) Methods in molecular Biology. Humana Press Inc, Totowa, N.J. pp 37-49). […]

TLR3 = molecular target: T1, TLR3 (Mus musculus, UniProt Q99MB1); assay: IFNβ ELISA of supernatants of RAW264.7 cells stimulated with polyI:C; assay type: cell-based
T1 construct: Experiments were conducted in the murine macrophage cell line RAW264.7; endogenous in cells; host or cells: RAW264.7 / RAW264-pNifty2-LUC
T1 sequence (Q99MB1 26-905): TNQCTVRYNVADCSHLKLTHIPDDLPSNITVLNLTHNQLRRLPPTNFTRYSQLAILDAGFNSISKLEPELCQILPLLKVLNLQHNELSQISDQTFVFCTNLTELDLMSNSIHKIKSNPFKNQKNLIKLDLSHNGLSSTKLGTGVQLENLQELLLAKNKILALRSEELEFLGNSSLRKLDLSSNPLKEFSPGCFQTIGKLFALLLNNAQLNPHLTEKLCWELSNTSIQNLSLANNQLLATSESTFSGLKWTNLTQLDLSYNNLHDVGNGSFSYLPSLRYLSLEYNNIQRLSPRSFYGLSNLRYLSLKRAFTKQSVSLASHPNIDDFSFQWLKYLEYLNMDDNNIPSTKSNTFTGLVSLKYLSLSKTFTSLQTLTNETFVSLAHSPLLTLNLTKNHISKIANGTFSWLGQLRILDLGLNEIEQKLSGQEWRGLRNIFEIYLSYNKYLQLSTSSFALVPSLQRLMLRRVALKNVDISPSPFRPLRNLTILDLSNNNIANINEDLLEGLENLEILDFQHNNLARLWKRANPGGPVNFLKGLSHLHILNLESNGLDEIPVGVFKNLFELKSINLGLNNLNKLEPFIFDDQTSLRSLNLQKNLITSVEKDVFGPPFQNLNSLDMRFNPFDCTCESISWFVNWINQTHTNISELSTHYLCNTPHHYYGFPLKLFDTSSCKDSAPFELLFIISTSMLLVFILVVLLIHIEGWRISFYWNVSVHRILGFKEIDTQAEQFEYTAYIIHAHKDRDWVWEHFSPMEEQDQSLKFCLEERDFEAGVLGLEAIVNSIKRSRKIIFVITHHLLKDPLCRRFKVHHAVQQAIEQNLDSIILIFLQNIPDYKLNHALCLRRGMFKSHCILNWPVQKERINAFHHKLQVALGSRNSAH
Procedure: Briefly, RAW264.7 cells were seeded at 2×10^5 cells/well in 24 well plates and cultured overnight (37° C., 5% CO2). Recombinant human Cpn10 (at concentrations between 10 μg/ml and 200 μg/ml) or buffer was added to cells in duplicate for 2 hours followed by the addition of polyI:C (tlrl-pic, InvivoGen, San Diego, Calif.) to a final concentration of 100 μg/ml. After 24 hours, supernatants were collected and analysed for IFNβ levels using a specific ELISA according to manufacturer's instructions (Cat No. 42400-1, R&D Systems Inc, Minneapolis, Minn.).

TLR4 = molecular target: T2, TLR4 (Homo sapiens, UniProt O00206); assay: FRET with TLR4 on MonoMac 6 cells; assay type: binding
T2 construct: endogenous in cells; host or cells: freshly isolated human monocytes; human monocyte-derived DC
T2 sequence (O00206 24-839): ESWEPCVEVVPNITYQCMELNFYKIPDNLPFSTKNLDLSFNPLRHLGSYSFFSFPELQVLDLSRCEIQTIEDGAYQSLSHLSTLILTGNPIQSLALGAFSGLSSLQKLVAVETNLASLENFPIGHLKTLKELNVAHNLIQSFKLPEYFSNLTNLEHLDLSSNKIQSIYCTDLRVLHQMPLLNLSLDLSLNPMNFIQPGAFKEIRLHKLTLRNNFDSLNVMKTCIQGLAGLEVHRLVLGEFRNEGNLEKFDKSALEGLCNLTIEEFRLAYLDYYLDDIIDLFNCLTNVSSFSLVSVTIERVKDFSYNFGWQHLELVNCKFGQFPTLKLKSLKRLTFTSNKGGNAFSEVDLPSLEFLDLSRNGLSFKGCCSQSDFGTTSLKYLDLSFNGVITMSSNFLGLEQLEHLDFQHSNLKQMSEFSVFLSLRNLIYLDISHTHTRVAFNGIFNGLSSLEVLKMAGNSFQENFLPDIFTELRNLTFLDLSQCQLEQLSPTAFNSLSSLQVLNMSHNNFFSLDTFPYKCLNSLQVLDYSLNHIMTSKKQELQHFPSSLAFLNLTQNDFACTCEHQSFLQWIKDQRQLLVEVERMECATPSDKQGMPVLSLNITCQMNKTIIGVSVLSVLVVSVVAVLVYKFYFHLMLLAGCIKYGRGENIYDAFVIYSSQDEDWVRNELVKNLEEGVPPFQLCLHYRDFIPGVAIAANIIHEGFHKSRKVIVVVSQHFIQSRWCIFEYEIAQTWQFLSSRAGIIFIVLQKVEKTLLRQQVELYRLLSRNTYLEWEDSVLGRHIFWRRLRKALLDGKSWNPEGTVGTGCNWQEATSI
Procedure: as §1, with “used. […]” for “used. The cells were rinsed twice in PBS/0.02% BSA, prior to fixation with 4% formaldehyde for 15 min.”, “measurements. […] In the present study,” for “measurements.”, “FRET was measured using” for “FRET is”, “a method as previously described (Kenworthy and […] (1998) Journal of Cell Biology 142: 69-84; Kenworthy and […] (1998) in Gelb, M. H. (Ed.) Methods in” for “a non-invasive imaging technique used to determine”, “molecular Biology. Humana Press Inc, Totowa, N.J. pp 37-49). Briefly, samples were labeled with donor and acceptor conjugated antibodies, and energy transfer was detected as an increase in donor fluorescence (dequenching) after complete photobleaching of the acceptor molecule.” for “molecular proximity.”

Hsp70 = assay: FRET with Hsp70 on MonoMac 6 cells; assay type: binding, human
Procedure: as §1, with “used. […]” for “used. The cells were rinsed twice in PBS/0.02% BSA, prior to fixation with 4% formaldehyde for 15 min.”, “measurements. […] In the present study,” for “measurements.”, “FRET was measured using” for “FRET is”, “a method as previously described (Kenworthy and […] (1998) Journal of Cell Biology 142: 69-84; Kenworthy and […] (1998) in Gelb, M. H. (Ed.) Methods in” for “a non-invasive imaging technique used to determine”, “molecular Biology. Humana Press Inc, Totowa, N.J. pp 37-49). Briefly, samples were labeled with donor and acceptor conjugated antibodies, and energy transfer was detected as an increase in donor fluorescence (dequenching) after complete photobleaching of the acceptor molecule.” for “molecular proximity.”

CXCR4 = molecular target: T3, CXCR4 (Homo sapiens, UniProt P61073); assay: FRET with CXCR4 on MonoMac 6 cells; assay type: binding
T3 construct: MonoMac 6 cells (a human monocytic cell line); endogenous in cells; host or cells: MonoMac 6
T3 sequence (P61073 whole entry): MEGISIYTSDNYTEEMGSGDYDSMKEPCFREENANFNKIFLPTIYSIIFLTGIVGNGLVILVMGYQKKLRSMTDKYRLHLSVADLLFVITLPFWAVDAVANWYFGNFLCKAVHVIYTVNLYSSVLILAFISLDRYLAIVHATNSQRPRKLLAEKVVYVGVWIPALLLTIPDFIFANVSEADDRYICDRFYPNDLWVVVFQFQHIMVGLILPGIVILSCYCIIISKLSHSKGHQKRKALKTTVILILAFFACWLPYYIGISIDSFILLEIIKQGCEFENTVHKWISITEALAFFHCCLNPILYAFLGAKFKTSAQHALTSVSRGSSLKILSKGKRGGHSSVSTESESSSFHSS
Procedure: as §1, with “used. […]” for “used. The cells were rinsed twice in PBS/0.02% BSA, prior to fixation with 4% formaldehyde for 15 min.”, “measurements. […] In the present study,” for “measurements.”, “FRET was measured using” for “FRET is”, “a method as previously described (Kenworthy and […] (1998) Journal of Cell Biology 142: 69-84; Kenworthy and […] (1998) in Gelb, M. H. (Ed.) Methods in” for “a non-invasive imaging technique used to determine”, “molecular Biology. Humana Press Inc, Totowa, N.J. pp 37-49). Briefly, samples were labeled with donor and acceptor conjugated antibodies, and energy transfer was detected as an increase in donor fluorescence (dequenching) after complete photobleaching of the acceptor molecule.” for “molecular proximity.”

Hsp90 = assay: FRET with Hsp90 on MonoMac 6 cells; assay type: binding, human
Procedure: as §1, with “used. […]” for “used. The cells were rinsed twice in PBS/0.02% BSA, prior to fixation with 4% formaldehyde for 15 min.”, “measurements. […] In the present study,” for “measurements.”, “FRET was measured using” for “FRET is”, “a method as previously described (Kenworthy and […] (1998) Journal of Cell Biology 142: 69-84; Kenworthy and […] (1998) in Gelb, M. H. (Ed.) Methods in” for “a non-invasive imaging technique used to determine”, “molecular Biology. Humana Press Inc, Totowa, N.J. pp 37-49). Briefly, samples were labeled with donor and acceptor conjugated antibodies, and energy transfer was detected as an increase in donor fluorescence (dequenching) after complete photobleaching of the acceptor molecule.” for “molecular proximity.”

CD14 = molecular target: T4, CD14 (Homo sapiens, UniProt P08571); assay: FRET with CD14 on MonoMac 6 cells; assay type: binding
T4 construct: MonoMac 6 cells (a human monocytic cell line); endogenous in cells; host or cells: MonoMac 6
T4 sequence (P08571 20-345): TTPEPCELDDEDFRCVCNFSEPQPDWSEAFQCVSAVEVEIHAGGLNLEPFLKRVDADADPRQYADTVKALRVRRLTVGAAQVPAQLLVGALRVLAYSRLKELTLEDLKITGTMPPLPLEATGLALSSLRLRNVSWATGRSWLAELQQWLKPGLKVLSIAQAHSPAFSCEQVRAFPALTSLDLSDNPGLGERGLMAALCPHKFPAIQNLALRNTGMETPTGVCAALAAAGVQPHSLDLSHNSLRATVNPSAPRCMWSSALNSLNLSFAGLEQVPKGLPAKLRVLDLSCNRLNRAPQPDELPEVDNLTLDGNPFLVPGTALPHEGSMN
Procedure: as §1, with “used. […]” for “used. The cells were rinsed twice in PBS/0.02% BSA, prior to fixation with 4% formaldehyde for 15 min.”, “measurements. […] In the present study,” for “measurements.”, “FRET was measured using” for “FRET is”, “a method as previously described (Kenworthy and […] (1998) Journal of Cell Biology 142: 69-84; Kenworthy and […] (1998) in Gelb, M. H. (Ed.) Methods in” for “a non-invasive imaging technique used to determine”, “molecular Biology. Humana Press Inc, Totowa, N.J. pp 37-49). Briefly, samples were labeled with donor and acceptor conjugated antibodies, and energy transfer was detected as an increase in donor fluorescence (dequenching) after complete photobleaching of the acceptor molecule.” for “molecular proximity.”

RAW264.7 cells [1] = system: RAW264.7 cells
Procedure: (§2) For the data shown in FIG. 34, PolyI:C (supplied by Invivogen) was dissolved in sterile saline at 5 mg/ml stored frozen at −20° C. Vials were thawed and diluted into medium. For buffer controls, the same volume and sterile saline was added to cell culture wells. […] RAW264.7 cells were grown as adherent cultures in flasks and scraped (i.e. not trypisinised) prior to seeding into 96-well plates. HeLa cells were trypsinised in the standard way prior to seeding. Cells were seeded in duplicate in a 96-well plate (5×10^3 for RAW264.7 cells and 10^4 for HeLa cells in 50 μl medium per well). After 4 h, Cpn10 was added (in 50 μl diluted in medium) and after a further 30 mins polyI:C was added (in 50 μl diluted in medium). The cells were then incubated overnight in the 96-well plates and then RRV was added (MOI=1 for RAW264.7 cells, and MOI=10 for HeLa cells in 50 μl). After 3 days, the cells were fixed, stained with crystal violet, washed, dried and dye extracted with 100% methanol and read at A595 nm as described (Antalis et al, J Exp Med 1998, 187(11):1799). […] Titrations were established to determine the dose required for induction of anti-viral resistance for RAW264.7 cells and HeLa cells.

Cpn10 mRNA = Cpn10 mRNA real-time PCR in RAW264.7 cells; assay type: cell-based, mouse; conditions: maximal induction at 18 h, near baseline by 24 h
RAW264.7 cells [2] = assay: ELISA of endogenous Cpn10 in RAW264.7 culture supernatants and cell lysates; assay type: cell-based, mouse
From the text: Reagents. Recombinant human Cpn10 was produced to GMP specifications by BresaGen Limited (Adelaide, Aus) essentially as described previously (Johnson, B. 2005. J. Biol Chem 280:4037-4047). […] For FACS analysis, a cysteine residue was engineered onto the C-terminus of Cpn10 and labeled with AlexFluor647 (Invitrogen) according to manufacturer's instructions. […] TLR ligands and cytokines included: E. coli LPS (strain 055:B5, Sigma), E. coli ultra-pure LPS (0111:B4 Sigma), S. aureus LTA, B. subtilis LTA, S. aureus PGN, B. subtilis PGN, zymosan cell wall from S. cerevisae, poly(I:C), imiquimod R837, CpG ODN 1826 and ODN2216, GpC ODN1826 control, (all from Invivogen, San Diego, Calif.), recombinant mouse IFNγ, (Chemicon), IL-1β (PeproTech), and recombinant human TNF-α (Invivogen). Antibodies. Rabbit polyclonal antibodies were raised against Cpn10 and affinity purified at CBio. […] After 24 h cells were harvested and cell viability assessed by trypan blue dye exclusion. […] Cells were washed, harvested in Cell Culture Lysis Reagent (CCLR, Promega) and firefly luciferase signal measured using the Luciferase Assay System (Promega) and the Wallac Victor 2 Multilabel Counter (Perkin-Elmer). […] Cells were assessed for viability, pooled per condition (n=4), pelleted by centrifugation and resuspended in CCLR.

Procedure for HeLa cells: as §2

Substance: TNF-α
up-regulation of the Cpn10 promoter (Cpn10 promoter): did not induce substantial up-regulation

Substance: IL-1β: IL-1β (PeproTech), non-TLR agonist
up-regulation of the Cpn10 promoter (Cpn10 promoter): did not induce substantial up-regulation

Substance: GroES: E. coli homologue of Cpn10, routinely used as a negative control
E ± ΔE (%) energy transfer efficiency (GM1; MM6 cells stimulated with LPS): 6 ± 1.0%
E ± ΔE (%) energy transfer efficiency (GM1; Unstimulated MM6 cells): 7 ± 1.5%
effect on polyI:C-induced IFNβ levels in culture supernatants (TLR3; polyI:C stimulation, 10-200 μg/ml protein): did not modulate the production of IFN-β
E ± ΔE (%) energy transfer efficiency (TLR4; MM6 cells stimulated with LPS): 8 ± 1.0%
E ± ΔE (%) energy transfer efficiency (TLR4; Unstimulated MM6 cells): 7 ± 1.5%
E ± ΔE (%) energy transfer efficiency (Hsp70; MM6 cells stimulated with LPS): 7 ± 1.5%
E ± ΔE (%) energy transfer efficiency (Hsp70; Unstimulated MM6 cells): 6 ± 1.0%
E ± ΔE (%) energy transfer efficiency (CXCR4; MM6 cells stimulated with LPS): 3 ± 1.0%
E ± ΔE (%) energy transfer efficiency (CXCR4; Unstimulated MM6 cells): 4 ± 2.0%
E ± ΔE (%) energy transfer efficiency (Hsp90; MM6 cells stimulated with LPS): 8 ± 2.0%
E ± ΔE (%) energy transfer efficiency (Hsp90; Unstimulated MM6 cells): 7 ± 1.5%
E ± ΔE (%) energy transfer efficiency (CD14; MM6 cells stimulated with LPS): 7 ± 0.5%
E ± ΔE (%) energy transfer efficiency (CD14; Unstimulated MM6 cells): 8 ± 1.0%

IFNβ released into culture supernatants (TLR3; polyI:C at 100 μg/ml, absence of Cpn10): 292 pg/mL
Substance: polyinosinic-polysytidilic acid [polyI:C]
concentrations showing clear signs of toxicity (RAW264.7 cells [1]): 5000 to 10000 ng/mL
toxicity (HeLa cells): No such toxicity was observed

Substance: lipoteichoic acid [LTA]
induction of the Cpn10 promoter (Cpn10 promoter; 24 hour stimulation, constant at 30 hours): 2.7 fold
induction of Cpn10 mRNA (Cpn10 mRNA): concentration-dependent induction of Cpn10 mRNA
intracellular Cpn10 levels in cell lysates (RAW264.7 cells [2]; LTA treated vs control cells): little change in intracellular Cpn10 levels
increase in soluble (extracellular) Cpn10 in culture supernatants over unstimulated control cells (RAW264.7 cells [2]; after 30 h, 100 μg/ml LTA): 3 fold
